For one experiment, the target named is CDC42BPB (human) (UniProt Q9Y5S2). Briefly: KINOMEscan competition binding. The conditions noted are these: compound 10.0 µM.
In a further experiment the target is CSNK2A2 (human) (UniProt P19784). The experiment can be described thus: KINOMEscan competition binding. The conditions noted are these: compound 10.0 µM.
For the next experiment, the target named is STK24 (human) (UniProt Q9Y6E0). Briefly: KINOMEscan competition binding. The conditions noted are these: compound 10.0 µM.
Experiment [1] has as its target PIM1 (human) (UniProt P11309). Briefly: KINOMEscan competition binding. The conditions noted are these: compound 10.0 µM.
Experiment [2] deals with PIM2 (human) (UniProt Q9P1W9). Briefly: KINOMEscan competition binding. The conditions noted are these: compound 10.0 µM.
The target in another experiment is CSNK2A1 (human) (UniProt P68400). Briefly: KINOMEscan competition binding. The conditions noted are these: compound 10.0 µM.
A further experiment deals with RPS6KA1 KD2 (human) (UniProt Q15418). The experiment can be described thus: KINOMEscan competition binding. The conditions noted are these: compound 10.0 µM.
The next experiment concerns the target TLK1 (human) (UniProt Q9UKI8). Briefly: KINOMEscan competition binding. The conditions noted are these: compound 10.0 µM.
Another experiment concerns the target RPS6KA6 KD2 (human) (UniProt Q9UK32). Briefly: KINOMEscan competition binding. The conditions noted are these: compound 10.0 µM.
For another experiment, the target named is MKNK2 (human) (UniProt Q9HBH9). Briefly: KINOMEscan competition binding. The conditions noted are these: compound 10.0 µM.
The target of another experiment is PIM3 (human) (UniProt Q86V86). The experiment can be described thus: KINOMEscan competition binding. The conditions noted are these: compound 10.0 µM.
A further experiment concerns the target MAPK8 (human) (UniProt P45983). The experiment can be described thus: KINOMEscan competition binding. The conditions noted are these: compound 10.0 µM.
The target of a further experiment is DDR1 (human) (UniProt Q08345). The experiment can be described thus: KINOMEscan competition binding. The conditions noted are these: compound 10.0 µM.
In another experiment the target is STK17B (human) (UniProt O94768). The experiment can be described thus: KINOMEscan competition binding. The conditions noted are these: compound 10.0 µM.
The next experiment has as its target RPS6KA2 KD2 (human) (UniProt Q15349). The experiment can be described thus: KINOMEscan competition binding. The conditions noted are these: compound 10.0 µM.
Experiment [3] has as its target PIM1 (human) (UniProt P11309). The experiment can be described thus: SelectScreen, TR FRET. (In general: Time-resolved FRET reads energy transfer from a long-lived donor to a nearby acceptor.)
Experiment [4] deals with PIM2 (human) (UniProt Q9P1W9). Briefly: SelectScreen, TR FRET.
For the next experiment, the target named is TAOK1 (human) (UniProt Q7L7X3). Briefly: KINOMEscan competition binding. The conditions noted are these: compound 10.0 µM.
The next experiment deals with MAPK10 (human) (UniProt P53779). The experiment can be described thus: KINOMEscan competition binding. The conditions noted are these: compound 10.0 µM.
For a further experiment, the target named is TLK2 (human) (UniProt Q86UE8). The experiment can be described thus: KINOMEscan competition binding. The conditions noted are these: compound 10.0 µM.
The next experiment concerns the target CDK16 (human) (UniProt Q00536). Briefly: KINOMEscan competition binding. The conditions noted are these: compound 10.0 µM.
A further experiment deals with MAPK9 (human) (UniProt P45984). The experiment can be described thus: KINOMEscan competition binding. The conditions noted are these: compound 10.0 µM.
A further experiment addresses PLK4 (human) (UniProt O00444). The experiment can be described thus: KINOMEscan competition binding. The conditions noted are these: compound 10.0 µM.
In the next experiment the target is TAOK3 (human) (UniProt Q9H2K8). The experiment can be described thus: KINOMEscan competition binding. The conditions noted are these: compound 10.0 µM.
A further experiment deals with MYLK4 (human) (UniProt Q86YV6). The experiment can be described thus: KINOMEscan competition binding. The conditions noted are these: compound 10.0 µM.
Another experiment has as its target MAP2K3 (human) (UniProt P46734). The experiment can be described thus: KINOMEscan competition binding. The conditions noted are these: compound 10.0 µM.
For another experiment, the target named is HIPK1 (human) (UniProt Q86Z02). Briefly: KINOMEscan competition binding. The conditions noted are these: compound 10.0 µM.
The target of the next experiment is PAK7 (human) (UniProt Q9P286). The experiment can be described thus: KINOMEscan competition binding. The conditions noted are these: compound 10.0 µM.
For the next experiment, the target named is CDK7 (human) (UniProt P50613). Briefly: KINOMEscan competition binding. The conditions noted are these: compound 10.0 µM.
A further experiment concerns the target GAK (human) (UniProt O14976). Briefly: KINOMEscan competition binding. The conditions noted are these: compound 10.0 µM.
A further experiment addresses EIF2AK2 (human) (UniProt P19525). The experiment can be described thus: KINOMEscan competition binding. The conditions noted are these: compound 10.0 µM.
The next experiment has as its target PAK2 (human) (UniProt Q13177). Briefly: KINOMEscan competition binding. The conditions noted are these: compound 10.0 µM.
The target in the next experiment is STK17A (human) (UniProt Q9UEE5). The experiment can be described thus: KINOMEscan competition binding. The conditions noted are these: compound 10.0 µM.
In another experiment the target is AAK1 (human) (UniProt Q2M2I8). The experiment can be described thus: KINOMEscan competition binding. The conditions noted are these: compound 10.0 µM.
A further experiment deals with STK25 (human) (UniProt O00506). Briefly: KINOMEscan competition binding. The conditions noted are these: compound 10.0 µM.
The next experiment addresses CLK2 (human) (UniProt P49760). Briefly: KINOMEscan competition binding. The conditions noted are these: compound 10.0 µM.
In the next experiment the target is MAPK15 (human) (UniProt Q8TD08). Briefly: KINOMEscan competition binding. The conditions noted are these: compound 10.0 µM.
A further experiment has as its target MAPK14 (human) (UniProt Q16539). The experiment can be described thus: KINOMEscan competition binding. The conditions noted are these: compound 10.0 µM.
Another experiment concerns the target ZAP70 (human) (UniProt P43403). The experiment can be described thus: KINOMEscan competition binding. The conditions noted are these: compound 10.0 µM.
A further experiment deals with TTK (human) (UniProt P33981). The experiment can be described thus: KINOMEscan competition binding. The conditions noted are these: compound 10.0 µM.

Usually IC50 stands for the midpoint of a concentration-inhibition curve.

Chain of PIM1 (human) (P11309 whole entry, looked up): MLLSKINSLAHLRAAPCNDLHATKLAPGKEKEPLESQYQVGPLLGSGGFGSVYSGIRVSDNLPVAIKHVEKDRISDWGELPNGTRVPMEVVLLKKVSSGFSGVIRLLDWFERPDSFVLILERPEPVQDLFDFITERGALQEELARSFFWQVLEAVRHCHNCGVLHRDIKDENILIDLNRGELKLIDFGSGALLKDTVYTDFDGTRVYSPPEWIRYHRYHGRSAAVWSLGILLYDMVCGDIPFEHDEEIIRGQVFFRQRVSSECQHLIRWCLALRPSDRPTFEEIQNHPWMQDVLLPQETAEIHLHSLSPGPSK
Chain of PIM2 (human) (Q9P1W9 whole entry, looked up): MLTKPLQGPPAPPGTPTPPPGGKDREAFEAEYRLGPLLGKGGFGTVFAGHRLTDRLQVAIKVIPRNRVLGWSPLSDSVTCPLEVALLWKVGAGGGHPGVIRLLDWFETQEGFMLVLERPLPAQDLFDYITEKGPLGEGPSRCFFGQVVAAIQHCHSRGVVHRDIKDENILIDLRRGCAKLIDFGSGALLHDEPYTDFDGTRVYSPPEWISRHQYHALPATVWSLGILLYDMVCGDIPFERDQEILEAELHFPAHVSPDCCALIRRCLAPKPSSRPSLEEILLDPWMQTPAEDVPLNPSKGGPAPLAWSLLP
Chain of RPS6KA6 KD2 (human) (Q9UK32 whole entry, looked up): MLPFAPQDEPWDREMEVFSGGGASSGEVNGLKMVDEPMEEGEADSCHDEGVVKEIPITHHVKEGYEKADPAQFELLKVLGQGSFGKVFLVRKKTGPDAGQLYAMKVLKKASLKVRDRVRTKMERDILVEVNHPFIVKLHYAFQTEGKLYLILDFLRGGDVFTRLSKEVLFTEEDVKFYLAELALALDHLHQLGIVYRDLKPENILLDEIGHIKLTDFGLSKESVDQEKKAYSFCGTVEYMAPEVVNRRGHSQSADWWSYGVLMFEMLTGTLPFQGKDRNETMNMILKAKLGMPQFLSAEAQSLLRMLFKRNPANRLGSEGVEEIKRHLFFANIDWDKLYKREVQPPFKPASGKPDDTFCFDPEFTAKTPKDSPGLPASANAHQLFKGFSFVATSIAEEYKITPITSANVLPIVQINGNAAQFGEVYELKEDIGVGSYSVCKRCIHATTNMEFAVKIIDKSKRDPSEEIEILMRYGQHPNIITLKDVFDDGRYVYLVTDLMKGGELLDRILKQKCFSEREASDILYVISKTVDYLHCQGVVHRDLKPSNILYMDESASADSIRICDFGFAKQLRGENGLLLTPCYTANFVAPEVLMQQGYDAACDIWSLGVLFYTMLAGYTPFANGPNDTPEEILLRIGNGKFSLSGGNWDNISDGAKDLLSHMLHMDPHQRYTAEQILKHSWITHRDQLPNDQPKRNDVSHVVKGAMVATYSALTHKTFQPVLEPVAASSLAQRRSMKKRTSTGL
Chain of MAPK8 (human) (P45983 whole entry, looked up): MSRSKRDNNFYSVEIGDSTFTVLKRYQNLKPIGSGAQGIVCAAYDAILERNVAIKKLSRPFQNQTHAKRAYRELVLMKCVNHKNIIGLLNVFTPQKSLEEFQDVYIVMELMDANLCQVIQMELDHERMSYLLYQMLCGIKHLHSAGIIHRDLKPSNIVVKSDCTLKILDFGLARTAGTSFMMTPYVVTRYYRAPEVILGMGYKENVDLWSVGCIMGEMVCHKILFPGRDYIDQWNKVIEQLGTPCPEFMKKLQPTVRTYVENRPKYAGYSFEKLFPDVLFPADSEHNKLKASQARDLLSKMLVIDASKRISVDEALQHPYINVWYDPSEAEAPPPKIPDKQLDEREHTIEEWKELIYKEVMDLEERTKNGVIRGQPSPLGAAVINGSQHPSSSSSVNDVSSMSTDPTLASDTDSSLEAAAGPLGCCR
Chain of RPS6KA1 KD2 (human) (Q15418 whole entry, looked up): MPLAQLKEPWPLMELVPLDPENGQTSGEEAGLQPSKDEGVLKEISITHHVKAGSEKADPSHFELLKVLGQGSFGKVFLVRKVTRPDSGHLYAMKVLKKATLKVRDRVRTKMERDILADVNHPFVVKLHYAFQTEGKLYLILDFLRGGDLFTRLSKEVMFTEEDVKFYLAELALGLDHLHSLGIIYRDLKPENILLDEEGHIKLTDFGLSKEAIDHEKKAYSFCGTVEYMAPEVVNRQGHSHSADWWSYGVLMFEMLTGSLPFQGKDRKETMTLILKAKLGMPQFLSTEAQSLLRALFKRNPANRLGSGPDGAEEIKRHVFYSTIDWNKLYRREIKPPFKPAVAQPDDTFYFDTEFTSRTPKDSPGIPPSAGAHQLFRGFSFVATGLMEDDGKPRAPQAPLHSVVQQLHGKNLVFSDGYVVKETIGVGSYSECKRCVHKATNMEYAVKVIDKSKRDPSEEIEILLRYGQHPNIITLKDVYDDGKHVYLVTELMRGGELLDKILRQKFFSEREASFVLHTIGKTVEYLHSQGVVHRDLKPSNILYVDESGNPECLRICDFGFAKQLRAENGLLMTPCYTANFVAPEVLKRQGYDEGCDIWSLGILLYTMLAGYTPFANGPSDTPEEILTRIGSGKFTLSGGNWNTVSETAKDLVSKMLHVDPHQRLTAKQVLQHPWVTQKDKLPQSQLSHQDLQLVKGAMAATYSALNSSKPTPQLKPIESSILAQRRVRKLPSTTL
Chain of RPS6KA2 KD2 (human) (Q15349 whole entry, looked up): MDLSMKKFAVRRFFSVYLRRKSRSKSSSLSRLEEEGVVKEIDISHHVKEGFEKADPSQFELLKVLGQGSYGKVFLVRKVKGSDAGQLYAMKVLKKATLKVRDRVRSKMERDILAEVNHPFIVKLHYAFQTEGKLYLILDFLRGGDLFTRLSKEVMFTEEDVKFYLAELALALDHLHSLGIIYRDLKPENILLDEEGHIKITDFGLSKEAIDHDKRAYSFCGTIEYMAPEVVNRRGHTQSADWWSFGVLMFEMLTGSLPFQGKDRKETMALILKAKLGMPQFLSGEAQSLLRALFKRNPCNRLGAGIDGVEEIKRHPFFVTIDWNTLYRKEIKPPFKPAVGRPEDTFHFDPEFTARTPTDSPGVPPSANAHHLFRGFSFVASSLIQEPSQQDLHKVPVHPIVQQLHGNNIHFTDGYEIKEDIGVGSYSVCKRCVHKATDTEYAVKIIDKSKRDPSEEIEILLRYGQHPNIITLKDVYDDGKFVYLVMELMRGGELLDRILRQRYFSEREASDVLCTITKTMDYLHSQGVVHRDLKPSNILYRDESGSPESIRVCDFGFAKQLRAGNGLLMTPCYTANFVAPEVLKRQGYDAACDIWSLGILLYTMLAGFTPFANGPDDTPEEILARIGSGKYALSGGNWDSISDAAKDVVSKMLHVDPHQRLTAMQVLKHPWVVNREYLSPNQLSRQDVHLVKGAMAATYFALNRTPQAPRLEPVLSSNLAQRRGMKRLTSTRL
Chain of STK24 (human) (Q9Y6E0 whole entry, looked up): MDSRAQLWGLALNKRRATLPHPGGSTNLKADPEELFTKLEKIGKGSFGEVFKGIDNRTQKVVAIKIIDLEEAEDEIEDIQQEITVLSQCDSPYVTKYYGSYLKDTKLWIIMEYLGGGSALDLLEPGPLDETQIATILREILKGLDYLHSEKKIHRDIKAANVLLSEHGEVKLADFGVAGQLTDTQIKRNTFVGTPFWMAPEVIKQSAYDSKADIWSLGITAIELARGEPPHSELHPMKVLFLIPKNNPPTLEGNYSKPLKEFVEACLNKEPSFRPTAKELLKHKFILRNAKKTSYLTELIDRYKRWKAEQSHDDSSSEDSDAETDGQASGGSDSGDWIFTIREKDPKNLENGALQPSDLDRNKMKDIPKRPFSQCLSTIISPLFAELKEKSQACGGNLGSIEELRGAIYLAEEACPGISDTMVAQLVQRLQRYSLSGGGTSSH
Chain of PAK7 (human) (Q9P286 whole entry, looked up): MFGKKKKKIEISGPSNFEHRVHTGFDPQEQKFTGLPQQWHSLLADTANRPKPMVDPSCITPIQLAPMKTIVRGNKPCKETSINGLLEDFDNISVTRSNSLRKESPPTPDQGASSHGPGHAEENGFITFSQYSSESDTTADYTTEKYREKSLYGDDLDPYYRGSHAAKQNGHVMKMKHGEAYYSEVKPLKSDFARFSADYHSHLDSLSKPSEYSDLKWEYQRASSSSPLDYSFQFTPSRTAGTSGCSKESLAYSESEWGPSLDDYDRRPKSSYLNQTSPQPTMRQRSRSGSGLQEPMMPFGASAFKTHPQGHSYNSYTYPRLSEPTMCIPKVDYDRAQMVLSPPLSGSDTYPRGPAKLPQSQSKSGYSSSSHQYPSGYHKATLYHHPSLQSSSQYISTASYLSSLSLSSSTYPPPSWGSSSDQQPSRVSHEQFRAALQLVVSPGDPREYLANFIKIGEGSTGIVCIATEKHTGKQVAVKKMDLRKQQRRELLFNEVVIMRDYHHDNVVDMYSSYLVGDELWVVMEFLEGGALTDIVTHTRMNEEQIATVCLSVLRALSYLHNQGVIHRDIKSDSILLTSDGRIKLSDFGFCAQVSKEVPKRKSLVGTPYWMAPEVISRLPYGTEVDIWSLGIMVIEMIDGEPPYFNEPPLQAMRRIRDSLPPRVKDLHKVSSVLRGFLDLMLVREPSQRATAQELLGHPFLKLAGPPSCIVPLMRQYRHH

As to `O=C1NC(=O)/C(=C/c2ccc(-c3ccc4c(C(=O)Nc5cccc(C(F)(F)F)c5)cccc4c3)o2)S1`, the kinase still bound, per cent of control was 28% on CDC42BPB (human); 33% at CSNK2A2 (human); 29% on STK24 (human); 14% on PIM1 (human) [1]; 0.75% at PIM2 (human) [2]; 33% at CSNK2A1 (human). In addition, the kinase still bound, per cent of control on RPS6KA1 KD2 (human) was determined as 23%; at TLK1 (human), 24%; at RPS6KA6 KD2 (human), 25%; at MKNK2 (human), 34%; on PIM3 (human) it was 11%; on MAPK8 (human), 30%. Besides, the values for the kinase still bound, per cent of control on DDR1 (human), at STK17B (human) and on RPS6KA2 KD2 (human) were 21%, 7.4% and 31%, respectively. In addition, the 50% inhibitory concentration (IC50) at PIM1 (human) [3] was found to be 9.02 µM; at PIM2 (human) [4], 2.91 µM.
As to `CSC1=NC(=O)/C(=C/c2ccc(-c3ccc(S(N)(=O)=O)cc3)o2)S1`, the kinase still bound, per cent of control on TAOK1 (human) stood at 3.6%; on MAPK10 (human), 22%; at TLK2 (human) it was 28%; on CDK16 (human) it was 0.1%; at MAPK9 (human) it was 6%; at PLK4 (human), 0.05%. For the same compound, the kinase still bound, per cent of control on TAOK3 (human) came to 24%; on MYLK4 (human), 19%; at PIM1 (human) [1], 1.6%; at MAP2K3 (human), 14%; on PIM2 (human) [2], 3%; at RPS6KA1 KD2 (human), 12%. The kinase still bound, per cent of control stood at 6.5% on HIPK1 (human); 28% on PAK7 (human); 1.4% on CDK7 (human); 6.7% on GAK (human); 18% on RPS6KA6 KD2 (human); 17% at EIF2AK2 (human). Besides, the kinase still bound, per cent of control is 34% at PAK2 (human); 1.8% on PIM3 (human); 2.5% at STK17A (human); 31% on MAPK8 (human); 14% at AAK1 (human); 32% at STK25 (human). The kinase still bound, per cent of control at CLK2 (human) was 9.8%; at MAPK15 (human), 29%; at MAPK14 (human), 19%; on ZAP70 (human) it was 32%; on TTK (human) it was 16%; on RPS6KA2 KD2 (human), 5.3%.
